Reference: patent US10456377B2, “Anesthetic comprising tetracaine and a vasoconstrictor for administration to a subject” (St. Renatus, LLC, priority 2009, dated 2019)
Structures can show the parent of a compound that is named as a salt.

System: maxillary dentition
Experiment: Intranasal tetracaine HCl solution, anesthesia of the maxillary dentition by electric pulp testing (EPT)
Format: in vivo, human
Settings: nasal spray, tetracaine doses between 4 and 16 mg, 80 subjects
Experimental: The purpose of this study was to identify an effective and safe dosage of an intranasally administered tetracaine hydrochloride solution for obtaining anesthesia of the maxillary dentition. Healthy human volunteers were administered a dose of tetracaine HCl delivered as a nasal spray using a BD Accuspray™ device. The administration of the local anesthetic varied by total dose, concentration, and volume, and it included single doses in a single nostril, split doses in the same nostril, and divided doses in both nostrils. Different techniques regarding direction of spray were also investigated.
The efficacy of tetracaine hydrochloride in 80 subjects was measured by monitoring pain levels via electric pulp testing (EPT). EPT testing was accomplished by passing a current through the tooth to be tested wherein the lowest level of current is a “0” and the highest level of current is an “80.” Subjects are exposed to an increasing amount of current (starting at 0 and ramping up to 80). If any pain was felt by the subject, the test was stopped and the EPT reading was recorded.
Subjects received tetracaine doses between 4 and 16 mg.

CCCCNc1ccc(C(=O)OCCN(C)C)cc1 [tetracaine HCl, 2-(dimethylamino)ethyl 4-(butylamino)benzoate]
maxillary arch anesthesia, as indicated by an EPT score of 80: did not result in maxillary arch anesthesia
